# Test results as given in patent US9745325B2, “Fused heterocyclic compound” (Takeda Pharmaceutical Company Limited, priority 2014, dated 2017).
# Where a name gives a salt, the structure may show the parent alone.
# Legend:
# CDC2L6/CycC (CDK19) = biological target: T1, CDC2L6/CycC (CDK19) (Homo sapiens, UniProt Q9BWU1); assay: CDK19 inhibitory activity (Kinase Tracer-236 / Eu-anti-GST fluorescence assay); type: binding; design: Percent inhibition of CDK19 activity (%): concentration or dose not given beside the values; conditions: for Percent inhibition of CDK19 activity (%): test compound concentration given as '1 1.1.1\4' [sic]
# T1 construct: purchased Carna Biosciences Inc
# T1 sequence (Q9BWU1 whole entry): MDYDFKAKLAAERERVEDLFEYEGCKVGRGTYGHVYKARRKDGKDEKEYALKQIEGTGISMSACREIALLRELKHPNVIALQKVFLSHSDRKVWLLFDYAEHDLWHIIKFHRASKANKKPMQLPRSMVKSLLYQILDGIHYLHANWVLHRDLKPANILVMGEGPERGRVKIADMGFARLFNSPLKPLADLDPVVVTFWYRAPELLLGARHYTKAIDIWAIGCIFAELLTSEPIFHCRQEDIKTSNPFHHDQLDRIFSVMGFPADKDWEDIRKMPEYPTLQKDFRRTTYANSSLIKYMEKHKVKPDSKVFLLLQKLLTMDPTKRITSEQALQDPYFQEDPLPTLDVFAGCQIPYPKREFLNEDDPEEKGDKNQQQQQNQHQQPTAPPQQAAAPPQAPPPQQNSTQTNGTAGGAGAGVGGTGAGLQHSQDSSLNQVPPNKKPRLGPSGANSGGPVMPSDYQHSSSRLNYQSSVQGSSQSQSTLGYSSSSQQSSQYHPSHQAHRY
# T1 sequence (P24863 whole entry partner): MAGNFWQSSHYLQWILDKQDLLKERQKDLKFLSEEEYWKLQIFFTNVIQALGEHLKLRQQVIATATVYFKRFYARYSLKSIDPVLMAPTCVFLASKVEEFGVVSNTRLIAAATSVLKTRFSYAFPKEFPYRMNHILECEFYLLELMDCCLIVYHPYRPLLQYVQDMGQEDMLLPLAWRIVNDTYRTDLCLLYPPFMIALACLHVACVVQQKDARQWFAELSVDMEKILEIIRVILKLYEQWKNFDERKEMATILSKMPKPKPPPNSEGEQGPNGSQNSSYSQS
# Method: (§1) The compound of the present invention was evaluated for its CDK8 inhibitory activity and CDK19 inhibitory activity by the following method. […] The primary diluted solution was dispensed in the amount of 2 μL/well to a 384-well plate, and then, a mixed solution of Eu^3+ Cryptate conjugated mouse monoclonal antibody anti-glutathione S-transferase (Cisbio) diluted 267-fold with an assay buffer and 60 nM Kinase Tracer-236 (Life technologies) was added thereto at 2 μL/well. […] After the addition, the plate was left standing at room temperature for 1 hour, and then, the fluorescence intensity (excitation wavelength 320 nm, fluorescence wavelength 615 nm, 665 nm, delay time 50 μsec) was measured using ann EnVision plate reader (PerkinElmer). The percent inhibition of CDK8 or CDK19 activity by the test compound can be calculated according to the following formula, wherein the fluorescence intensity of a reaction solution in the absence of compound is defined as the control, and the fluorescence intensity of a reaction solution in the presence of 10 μM of control compound is defined as the blank.
# CDK8/CycC = biological target: T2, CDK8/CycC (Homo sapiens, UniProt P49336); assay: CDK8 inhibitory activity (Kinase Tracer-236 / Eu-anti-GST fluorescence assay); type: binding; design: Percent inhibition of CDK8 activity (%): concentration or dose not given beside the values; conditions: for Percent inhibition of CDK8 activity (%): test compound concentration given as '1 1.1.1\4' [sic]
# T2 construct: purchased Carna Biosciences
# T2 sequence (P49336 whole entry): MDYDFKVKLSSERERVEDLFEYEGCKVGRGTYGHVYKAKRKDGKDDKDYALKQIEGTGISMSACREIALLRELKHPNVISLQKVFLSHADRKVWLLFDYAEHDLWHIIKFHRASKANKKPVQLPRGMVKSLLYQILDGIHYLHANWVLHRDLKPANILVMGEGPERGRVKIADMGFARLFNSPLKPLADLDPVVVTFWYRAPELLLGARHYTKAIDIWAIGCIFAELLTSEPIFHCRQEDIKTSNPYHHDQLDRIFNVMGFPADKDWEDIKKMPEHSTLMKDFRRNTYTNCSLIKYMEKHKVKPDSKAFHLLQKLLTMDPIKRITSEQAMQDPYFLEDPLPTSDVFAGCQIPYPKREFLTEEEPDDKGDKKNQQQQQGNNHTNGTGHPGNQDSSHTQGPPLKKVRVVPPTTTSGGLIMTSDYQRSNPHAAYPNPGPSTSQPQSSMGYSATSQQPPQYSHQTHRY
# T2 sequence (P24863 whole entry partner): as the sequence (P24863 whole entry partner) above
# Method: as §1
# [1] = tested on: human multiple myeloma RPMI8226 cells; assay: Inhibitory activity against human multiple myeloma RPMI8226 cell growth (CellTiter-Glo); type: cell-based; conditions: Homo sapiens, RPMI-8226, 192 h, 1 μM test compound, cultured for 8 days; read-out: Percent inhibition of RPMI8226 cell growth (%)
# Method: The compound of the present invention was evaluated for its inhibitory activity against human multiple myeloma RPMI8226 cell growth by the following method.
# A suspension of human multiple myeloma RPMI8226 cells (purchased from the Health Protection Agency) was inoculated at 40 μL (300 cells/well) to a 384-well plate and cultured at 37° C. for 1 day in a 5% CO2 incubator. After the culture, each test compound solution was added thereto at a test concentration of 1 μM using TECAN D300, and the cells were further cultured for 8 days. After the culture, CellTiter-Glo™ Luminescent Cell Viability Assay reagent (Promega) was added at 40 μL/well to a 384-well plate, and the amount of luminescence was measured using a luminometer. Inhibitory activity against human multiple myeloma RPMI8226 cell growth (percent inhibition (%)) of the test compound was calculated according to the following formula, which is based on the hypothesis that the amount of residual ATP reflects the number of cells. In this formula, 100% control represents the amount of luminescence from a well with only 0.1% DMSO added. Percent inhibition (%)=(1−(amount of luminescence of the test compound)÷(100% control))×100
SMILES,Percent inhibition of CDK19 activity (%) (CDC2L6/CycC (CDK19)),Percent inhibition of CDK8 activity (%) (CDK8/CycC),"IC50 (CDC2L6/CycC (CDK19); control compound, for reference, read-out: CDK19 inhibition IC50)","IC50 (CDK8/CycC; control compound, for reference, read-out: CDK8 inhibition IC50)",inhibition at 1 µM [1]
"NC(=O)c1sc(Oc2ccc(Br)cc2)c2c1CCc1cnsc1-2 [Example 1, 8-(4-Bromophenoxy)-4,5-dihydrothieno[3,4-g][1,2]benzothiazole-6-carboxamide]",103%,100%,,,56%
"N#Cc1ccc(Oc2sc(C(N)=O)c3c2-c2sncc2CC3)cc1 [Example 2, 8-(4-Cyanophenoxy)-4,5-dihydrothieno[3,4-g][1,2] benzothiazole-6-carboxamide]",100%,100%,,,58%
"NC(=O)c1sc(Oc2ccc(C(=O)N3CCOCC3)cc2)c2c1CCc1cnsc1-2 [Example 3, 8-(4-(Morpholin-4-ylcarbonyl)phenoxy)-4,5-dihydrothieno[3,4-g][1,2]benzothiazole-6-carboxamide]",99%,97%,,,60%
"CN(C)C(=O)c1ccc(Oc2sc(C(N)=O)c3c2-c2sncc2CC3)cc1 [Example 4, 8-(4-(Dimethylcarbamoyl)phenoxy)-4,5-dihydrothieno[3,4-g][1,2] benzothiazole-6-carboxamide]",98%,97%,,,61%
"CCCS(=O)(=O)c1ccc(Oc2sc(C(N)=O)c3c2-c2sncc2CC3)cc1 [Example 5, 8-(4-(Propylsulfonyl)phenoxy)-4,5-dihydrothieno[3,4-g][1,2]benzothiazole-6-carboxamide]",100%,99%,,,63%
"CS(=O)(=O)c1cc(Oc2sc(C(N)=O)c3c2-c2sncc2CC3)ccc1C#N [Example 6, 8-(4-Cyano-3-(methylsulfonyl)phenoxy)-4,5-dihydrothieno[3,4-g][1,2]benzothiazole-6-carboxamide]",84%,89%,,,46%
"Cc1ncccc1Oc1sc(C(N)=O)c2c1-c1sncc1CC2 [Example 7, 8-((2-Methylpyridin-3-yl)oxy)-4,5-dihydrothieno[3,4-g][1,2]benzothiazole-6-carboxamide]",101%,100%,,,69%
"NC(=O)c1sc(Oc2ccc(Cl)nc2)c2c1CCc1cnsc1-2 [Example 10, 8-((6-Chloropyridin-3-yl)oxy)-4,5-dihydrothieno[3,4-g][1,2]benzothiazole-6-carboxamide]",101%,96%,,,60%
"N#Cc1ccc(Oc2sc(C(N)=O)c3c2-c2sncc2CC3)cn1 [Example 11, 8-((6-Cyanopyridin-3-yl)oxy)-4,5-dihydrothieno[3,4-g][1,2]benzothiazole-6-carboxamide]",99%,96%,,,71%
"NC(=O)c1sc(Oc2ccc(C(=O)O)nc2)c2c1CCc1cnsc1-2 [Example 12, 5-((6-Carbamoyl-4,5-dihydrothieno[3,4-g][1,2]benzothiazol-8-yl)oxy)pyridine-2-carboxylic acid]",97%,100%,,,65%
"N=C(N)c1ccc(Oc2sc(C(N)=O)c3c2-c2sncc2CC3)cn1 [Example 14, 8-((6-Carbamimidoylpyridin-3-yl)oxy)-4,5-dihydrothieno[3,4-g][1,2] benzothiazole-6-carboxamide]",97%,92%,,,65%
"CCOC(=O)c1ccc(Oc2sc(C(N)=O)c3c2-c2sncc2CC3)cn1 [Example 15, Ethyl 5-((6-carbamoyl-4,5-dihydrothieno[3,4-g][1,2]benzothiazol-8-yl)oxy)pyridine-2-carboxylate]",102%,100%,,,64%
"NC(=O)c1sc(Oc2ccc(Br)nc2)c2c1CCc1cnsc1-2 [Example 16, 8-((6-Bromopyridin-3-yl)oxy)-4,5-dihydrothieno[3,4-g][1,2]benzothiazole-6-carboxamide]",99%,98%,,,59%

# The next lines start with results.
Percent inhibition of CDK19 activity (%) (CDC2L6/CycC (CDK19)),Percent inhibition of CDK8 activity (%) (CDK8/CycC),"IC50 (CDC2L6/CycC (CDK19); control compound, for reference, read-out: CDK19 inhibition IC50)","IC50 (CDK8/CycC; control compound, for reference, read-out: CDK8 inhibition IC50)",SMILES,inhibition at 1 µM [1]
101%,102%,,,"CNC(=O)c1ccc(Oc2sc(C(N)=O)c3c2-c2sncc2CC3)cn1 [Example 17, 8-((6-(Methylcarbamoyl)pyridin-3-yl)oxy)-4,5-dihydrothieno[3,4-g][1,2]benzothiazole-6-carboxamide]",66%
93%,98%,,,"NC(=O)c1sc(Oc2ccc(C(=O)N3CCOCC3)nc2)c2c1CCc1cnsc1-2 [Example 19, 8-((6-(Morpholin-4-ylcarbonyl)pyridin-3-yl)oxy)-4,5-dihydrothieno[3,4-g][1,2]benzothiazole-6-carboxamide]",53%
99%,102%,,,"CC1(C(=O)Nc2ccc(Oc3sc(C(N)=O)c4c3-c3sncc3CC4)cn2)COC1 [Example 20, 8-((6-(((3-Methyloxetan-3-yl)carbonyl)amino)pyridin-3-yl)oxy)-4,5-dihydrothieno[3,4-g][1,2]benzothiazole-6-carboxamide]",66%
100%,106%,,,"NC(=O)c1sc(Oc2ccc(NC(=O)C3(O)CC3)nc2)c2c1CCc1cnsc1-2 [Example 21, 8-((6-(((1-Hydroxycyclopropyl)carbonyl)amino)pyridin-3-yl)oxy)-4,5-dihydrothieno[3,4-g][1,2]benzothiazole-6-carboxamide]",70%
104%,102%,,,"CC(C)(O)C(=O)Nc1ccc(Oc2sc(C(N)=O)c3c2-c2sncc2CC3)cn1 [Example 22, 8-((6-((2-Hydroxy-2-methylpropanoyl)amino)pyridin-3-yl)oxy)-4,5-dihydrothieno[3,4-g][1,2]benzothiazole-6-carboxamide]",71%
100%,104%,,,"COCCNC(=O)c1ccc(Oc2sc(C(N)=O)c3c2-c2sncc2CC3)c(C)n1 [Example 25, 8-((6-((2-Methoxyethyl)carbamoyl)-2-methylpyridin-3-yl)oxy)-4,5-dihydrothieno[3,4-g][1,2] benzothiazole-6-carboxamide]",60%
102%,103%,,,"Cc1nc(N(C)C(=O)C2CC2)ccc1Oc1sc(C(N)=O)c2c1-c1sncc1CC2 [Example 26, 8-((6-((Cyclopropylcarbonyl)(methyl)amino)-2-methylpyridin-3-yl)oxy)-4,5-dihydrothieno[3,4-g][1,2]benzothiazole-6-carboxamide]",66%
102%,102%,,,"CNc1ccc(Oc2sc(C(N)=O)c3c2-c2sncc2CC3)c(C)n1 [Example 27, 8-((2-Methyl-6-(methylamino)pyridin-3-yl)oxy)-4,5-dihydrothieno[3,4-g][1,2]benzothiazole-6-carboxamide monohydrochloride]",81%
99%,101%,,,"CC(=O)N(C)c1ccc(Oc2sc(C(N)=O)c3c2-c2sncc2CC3)c(C)n1 [Example 28, 8-((6-(Acetyl(methyl)amino)-2-methylpyridin-3-yl)oxy)-4,5-dihydrothieno[3,4-g][1,2]benzothiazole-6-carboxamide]",63%
,,0.13 µM,0.12 µM,"Oc1ccc(-c2n[nH]cc2-c2ccc3c(c2)OCCO3)c(O)c1 [control compound, 4-(4-(2,3-dihydro-1,4-benzodioxin-6-yl)-1H-pyrazol-3-yl)benzene-1,3-diol, reference compound]",
